From patent US8021658B2, “Alternative splice forms of proteins as basis for multiple therapeutic modalities” (Thomas Jefferson University, priority 2001, dated 2011)
Bridges are numbered along the chain shown (N, C = ends). Roman numbers before positions name the chains, in order. Where no end group is shown, it is not given here.

How the values were obtained:
[1] = system: HC2 20d2/c tumor cells; assay: Regression of HC2 20d2/c tumors in mice vaccinated with VEGF peptides; type: in vivo; conditions: FIG. 2; for tumor regression (average tumor volume vs. time): mice injected with HC2 20d2/c tumor cells, vaccinated four days post-injection with peptide plus murine GM-CSF; for reduction in average tumor volume: by the end of the study
Experimental: The VEGF peptides and the SEQ ID NO: 85 homodimer were evaluated for their ability to elicit an anti-tumor immune response in a mouse tumor model. A total of 112 syngeneic mice were divided into eight treatment groups of 14 mice each, and injected with HC2 20d2/c tumor cells. Four days post-injection, the first through fifth treatment groups were vaccinated in the left inguinal area with 100 μg of either SEQ ID NO: 73, SEQ ID NO: 75, SEQ ID NO: 77, SEQ ID NO: 79, or the SEQ ID NO: 81 dimer diluted in 100 μl of PBS mixed with 45 ng of murine GM-CSF as an adjuvant. The total volume of phosphate buffered saline (PBS) was 150 microliters with 2 mg/ml mouse serum albumin as a carrier. The sixth treatment group was vaccinated as above with a combination of all four VEGF peptides and the SEQ ID NO: 81 homodimer (60 μg each) in a total of 200 microliters of PBS with 45 ng of murine GM-CSF and 2 mg/ml mouse serum albumin. The seventh treatment group was vaccinated as above with 100 μg of a peptide derived from a mutant epidermal growth factor receptor (EGFR) protein called EGFRvIII (SEQ ID NO: 82). The vaccine composition also contained 45 ng of murine GM-CSF and 2 mg/ml mouse serum albumin. The EGFRvIII mutation is the result of a genomic rearrangement in the EGFR gene, and the EGFRvIII peptide (SEQ ID NO: 82) is reported to induce an immune response against tumor cells expressing the mutant receptor. The eighth treatment group was vaccinated with GM-CSF and 2 mg/ml mouse serum albumin in PBS with no peptide, as a control. All treatment groups were then injected once daily for the next 3 days with the 45 ng GM-CSF in the original area of vaccination.

[2] = system: HC2 20d2/c tumor cells pulsed with the immunizing peptide; assay: ELISPOT assay (anti-interferon-gamma) of cytotoxic T lymphocyte activity of splenocytes from immunized mice; type: cell-based; conditions: FIG. 5; for CTL response compared with mouse treated with SEQ ID NO: 82 (EGFRvIII): mice which had undergone tumor regression
Experimental: Briefly, the ELISPOT method is performed by coating a cell culture dish or well with a cytokine capture antibody, for example an anti-interferon gamma antibody. The unoccupied spots on the culture dish or well are then blocked with a non-specific binding protein. Target cells, for example tumor cells, that endogenously synthesize the alternative splice form which has been used to stimulate PBLs are added to the culture dish or well. Alternatively, target cells can be pulsed with the peptide of interest. Activated PBLs are then added to the culture dish or well. If the activated PBLs specifically lyse the target cells, the PBLs secrete cytokines such as interferon-gamma, which is captured by the cytokine capture antibody initially coated onto the culture dish or well. A secondary antibody that recognized a different epitope of interferon gamma is then used to detect the presence of any interferon-gamma secreted by the PBLs and captured by the cytokine capture antibody. The secondary antibody can be conjugated with a detectable label, such as fluorescent or radioactive label. Identification of peptides of the invention which induce MHC-restricted cytotoxic T lymphocyte responses by the ELISPOT method is shown in Example 5 below.
Splenocytes from mice inoculated with GM-CSF only were used as a control (“control”). HC2 20d2/c tumor cells pulsed with 10 micrograms/ml of the immunizing peptide, or mouse serum albumin (for splenocytes from GM-CSF only treated animals) were used as the target cells for the treatment and control splenocytes, respectively. Untreated HC2 20d2/c tumor cells were used as negative control target cells.
The splenocytes were incubated at various ratios (from 10:1 to 2:1) with target cells in triplicate, and lytic events were identified with an ELISPOT assay using anti-interferon-gamma antibody as the cytokine capture antibody. The specific spots per 10^6 cells were quantitated using the lytic events from untreated target cells as the background, and then performing linear regression analysis.

[3] = splenocytes of immunized mice which had undergone tumor regression, target cells pulsed with the vaccinating peptide

Substance	tumor progression ([1]; HC2 20d2/c tumor model)	duration of initial tumor progression ([1]; HC2 20d2/c tumor model, after vaccination)	tumor regression (average tumor volume vs. time) [1]	time at which tumor regression is most notable ([1]; HC2 20d2/c tumor model)	time until which regression is seen ([1]; HC2 20d2/c tumor model)	tumor progression ([1]; HC2 20d2/c tumor model, listed as SEQ ID NO: 81)	reduction in average tumor volume ([1]; HC2 20d2/c tumor model)	CTL response compared with mouse treated with SEQ ID NO: 82 (EGFRvIII) [2]	CTL response (ELISPOT) [2, 3]	CTL response (ELISPOT) ([2]; splenocytes of vaccinated mouse which had not undergone tumor regression)
SEQ ID NO: 82: peptide derived from a mutant epidermal growth factor receptor (EGFR) protein called EGFRvIII (LEEKKGNYVVTDHC; EGFRvIII peptide) [reference compound]	progression was not as dramatic as the control mice	approximately 5 days	distinct regression noted thereafter	–	–	–	–	–	–	–
RTKPEKCDKPRRC (disulfide I:13-II:13; cysteine pairing not given here) [SEQ ID NO: 81 homodimer]	initially shows tumor progression	–	induce tumor regression to some degree	12 days after vaccination	~20 days after vaccination	progress from that point onward	strong reduction in average tumor volumes	–	–	–
V V K Q L V Q T P P L P P (VVKQLVQTPPLPP; VEGFB alt splice #1 peptide) [SEQ ID NO: 75, peptide encoded by alternatively spliced murine VEGFB mRNA]	progress from that point onward	–	–	–	~20 days after vaccination	–	–	greater than that seen for the mouse treated with SEQ ID NO: 82	strong CTL responses	–
L E R S E S C E D R C P (LERSESCEDRCP; VEGFD alt splice #2 peptide) [SEQ ID NO: 79, peptide encoded by alternatively spliced murine VEGFD mRNA]	–	–	–	–	–	–	strong reduction in average tumor volumes	–	–	–
R T K P E K C D K P R R (RTKPEKCDKPRR; VEGF alt splice #1) [SEQ ID NO: 73, peptide encoded by alternatively spliced mouse VEGF mRNA]	–	–	pattern of regression similar to that found for the EGFRvIII peptide	–	–	–	–	greater than that seen for the mouse treated with SEQ ID NO: 82	strong CTL responses	poor CTL responses
